# Data as given in patent publication US20240182431A1, “NEW CONTRAST AGENT FOR USE IN MAGNETIC RESONANCE IMAGING” (Bayer Aktiengesellschaft, priority 2021, published 2024).
# Experiment: Partition coefficient (logP butanol/buffer)
# Type: physicochemical
# Settings: 1-butanol / 50 mM Tris-HCl, pH 7.4, room temperature
row,SMILES,Log P (butanol/buffer)
1,"CCOCCOCCOc1cc(CC(C(=O)O)N2CCN(CC(=O)[O-])CCN(CC(=O)[O-])CCN(CC(=O)[O-])CC2)cc(OCCOCCOCC)c1.[Gd+3] (centres unmarked) [Example 39, gadolinium 2,2′,2″-{10-[2-{3,5-bis[2-(2-ethoxyethoxy)ethoxy]phenyl}-1-carboxyethyl]-1,4,7,10-tetraazacyclododecane-1,4,7-triyl}triacetate]",−1.32
2,"CCOCCOCCOCCOc1ccc(C[C@@H](C(=O)O)N2CCN(CC(=O)[O-])CCN(CC(=O)[O-])CCN(CC(=O)[O-])CC2)c(OCCOCCOCCOCC)c1.[Gd+3] [Example 40, gadolinium 2,2′,2″-{10-[(1S)-2-(2,4-bis{2-[2-(2-ethoxyethoxy)ethoxy]ethoxy}phenyl)-1-carboxyethyl]-1,4,7,10-tetraazacyclododecane-1,4,7-triyl}triacetate]",−1.43
3,"CCOCCOCCOc1ccc(CC(C(=O)O)N2CCN(CC(=O)[O-])CCN(C(CO)C(=O)[O-])CCN(CC(=O)[O-])CC2)cc1.[Gd+3] (centres unmarked) [Example 41, gadolinium-2-{7-[1-carboxy-2-{4-[2-(2-ethoxyethoxy)ethoxy]phenyl}ethyl]-4,10-bis(carboxylatomethyl)-1,4,7,10-tetraazacyclododecan-1-yl}-3-hydroxypropanoate]",−1.61
4,"CCOCCOCCOCCOc1ccc(CC(C(=O)O)N2CCN(CC(=O)[O-])CCN(C(CO)C(=O)[O-])CCN(CC(=O)[O-])CC2)cc1.[Gd+3] (centres unmarked) [Example 42, gadolinium-2-{7-[1-carboxy-2-(4-{2-[2-(2-ethoxyethoxy)ethoxy]ethoxy}phenyl)ethyl]-4,10-bis(carboxylatomethyl)-1,4,7,10-tetraazacyclododecan-1-yl}-3-hydroxypropanoate]",−1.60
5,"CCOCCOCCOc1ccc(CC(C(=O)[O-])N2CCN(CC(=O)[O-])CCN(C(CC)C(=O)O)CCN(CC(=O)[O-])CC2)cc1.[Gd+3] (centres unmarked) [Example 43, gadolinium-2-{4,10-bis(carboxylatomethyl)-7-[1-carboxypropyl]-1,4,7,10-tetraazacyclododecan-1-yl}-3-{4-[2-(2-ethoxyethoxy)ethoxy]phenyl}propanoate]",−1.19
6,"COCC(C(=O)O)N1CCN(CC(=O)[O-])CCN(C(Cc2ccc(OCC(F)(F)C(F)F)cc2)C(=O)[O-])CCN(CC(=O)[O-])CC1.[Gd+3] (centres unmarked) [Example 45, gadolinium-2-{4,10-bis(carboxylatomethyl)-7-[1-carboxy-2-methoxyethyl]-1,4,7,10-tetraazacyclododecan-1-yl}-3-[4-(2,2,3,3-tetrafluoropropoxy)phenyl]propanoate]",−0.36
7,"O=C([O-])CN1CCN(CC(=O)[O-])CCN(C(Cc2ccc(OCC(F)(F)C(F)F)cc2)C(=O)O)CCN(CC(=O)[O-])CC1.[Gd+3] (centres unmarked) [Example 46, gadolinium 2,2′,2″-(10-{1-carboxy-2-[4-(2,2,3,3-tetrafluoropropoxy)phenyl]ethyl}-1,4,7,10-tetraazacyclododecane-1,4,7-triyl)triacetate]",−0.57
8,"O=C([O-])CN1CCN(CC(=O)[O-])CCN([C@H](Cc2ccc(OCC(F)(F)F)cc2)C(=O)O)CCN(CC(=O)[O-])CC1.[Gd+3] [Example 47, gadolinium 2,2′,2″-(10-{(1R)-1-carboxy-2-[4-(2,2,2-trifluoroethoxy)phenyl]ethyl}-1,4,7,10-tetraazacyclododecane-1,4,7-triyl)triacetate]",−0.77
